Laboratory results from patent US20200129622A1, “METHODS OF MAKING ANTIMICROBIAL BIOPOLYMER FROM SODIUM ALGINATE AND ALGAE EXTRACT USING AMINOGLYCOSIDES, AND METHODS OF USING THE SAME” (Colorado School of Mines, priority 2018, published 2020).
Structures can show the parent of a compound that is named as a salt.

Test system: E. coli DH5α
Test: Antimicrobial activity by agar diffusion assay (zone of inhibition)
Type: cell-based
Parameters: unit not given here
Conditions: 50 μl of 10 mg/ml aqueous antibiotic stock in agar well; 37° C., 18 hr
Method: Antimicrobial activity of polymers was checked against E. coli DH5α using agar diffusion assay. Single colony of E. coli was inoculated in 10 ml of Luria Broth (LB) and incubated till OD600 reached 0.5 (log-phase culture) and 100 μl of bacterial culture was spread over LB agar plates. To check the antimicrobial activity of the antibiotics, wells were made by punching a hole in the LB agar plates. For reference plates, 50 μl of 10 mg/ml aqueous stock solution of each antibiotic was added in the wells as shown in the top row of FIG. 6.
For experiments with alginate polymers, polymer pellets were washed three times with sterile DI water to remove any unbound free antibiotics. Each washing step included the addition of 500 μl of sterile DI water and centrifugation at 10000 rpm for 15 min. After washing, polymer pellets were placed at the center of the LB plates with E. coli DH5α. Plates were incubated at 37° C. for 18 hours (hr). The zone of inhibition, e.g., the area with no growth of bacteria around well or polymer pellet, was measured using a ruler as shown in the middle and bottom rows of FIG. 6 and in Table 3 below.
The antimicrobial property of alginateaminoglycoside polymer against E. coli DH5α was quantified by measurement of the zone of bacterial inhibition. In particular, aminoglycoside biopolymers were prepared in microcentrifuge tubes and after centrifugation, pellet was washed three times with sterile deionized water to remove free antibiotic. After washing, the polymer pellet was carefully removed using a spatula and placed at the center of the plate containing E. coli DH5α cells and incubated for 18 hr. After incubation for 18 hr, white polymer pellets became transparent to varying degrees.
In particular, circular zones of growth inhibition are visible after antibiotics and polymers were placed in wells at the centers of LB plates. […] While polymers made with KS, GS, and KDS became transparent, polymers made with TS and NS remained white.

## NC[C@H]1O[C@H](O[C@H]2[C@H](O)[C@@H](O[C@H]3O[C@H](CO)[C@@H](O)[C@H](N)[C@H]3O)[C@H](N)C[C@@H]2N)[C@H](O)[C@@H](O)[C@@H]1O [KS, kanamycin sulfate]
  diameter of zone of inhibition, Antibiotic only: 3.4 ± 0.1

## [H]/N=C(/N)N[C@H]1[C@H](O)[C@@H](O)[C@H](O[C@@H]2O[C@@H](C)[C@](O)(C=O)[C@H]2O[C@@H]2O[C@@H](CO)[C@H](O)[C@@H](O)[C@@H]2NC)[C@@H](N/C(N)=N\[H])[C@@H]1O [SS, streptomycin sulfate]
  diameter of zone of inhibition, Antibiotic only: 3.5 ± 0.1

## gentamicin sulfate [GS]
  diameter of zone of inhibition, Antibiotic only: 2.9 ± 0.1

## kanamycin disulfate [KDS]
  diameter of zone of inhibition, Antibiotic only: 3.0 ± 0.1

## neomycin sulfate [NS]
  diameter of zone of inhibition, Antibiotic only: 3.0 ± 0.2

## tobramycin sulfate [TS]
  diameter of zone of inhibition, Antibiotic only: 3.1 ± 0.1
